Data: article PMC12186263, “Molecular Basis for Peptide Nitration by a Novel Cytochrome P450 Enzyme in RiPP Biosynthesis” (ACS Catalysis, 2025)
Square brackets hold non-standard residues; d marks the D form. Ends that are not written are not given here. Peptide text beside a SMILES is read from it. Nle = CCCC[C@H](N)C(=O)O

Columns and labels:
RufO [1] = biological target: T1, RufO (Streptomyces atratus, UniProt A0A224AU14); experiment: Isothermal titration calorimetry, peptide into RufO; format: binding; settings: ITC, 20 °C, 190 μM RufO, 50 mM Tris-HCl, 100 mM NaCl pH 7.5, one set of sites, control subtracted
T1 construct: made in house
T1 sequence (A0A224AU14 1-394): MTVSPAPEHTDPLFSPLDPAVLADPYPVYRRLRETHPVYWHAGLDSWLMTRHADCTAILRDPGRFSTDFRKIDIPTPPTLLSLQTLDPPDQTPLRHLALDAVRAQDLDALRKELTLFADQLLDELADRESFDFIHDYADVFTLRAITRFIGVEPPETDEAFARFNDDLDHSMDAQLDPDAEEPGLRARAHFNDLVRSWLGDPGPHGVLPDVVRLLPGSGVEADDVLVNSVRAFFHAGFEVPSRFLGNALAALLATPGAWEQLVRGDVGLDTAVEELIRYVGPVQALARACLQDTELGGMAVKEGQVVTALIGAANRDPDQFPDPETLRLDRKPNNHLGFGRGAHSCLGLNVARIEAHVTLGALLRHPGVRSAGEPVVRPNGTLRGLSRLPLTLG
Protocol: ITC experiments were conducted at 20 °C using a MicroCal PEAQ-ITC instrument (Malvern Panalytical). RufO was prepared in a buffer containing 50 mM Tris-HCl and 100 mM NaCl at pH 7.5. The reference cell was filled with water. Each experiment involved 190 μM RufO in the sample cell, titrated with either 2.5 mM MRYLH or 2.8 mM Nle-RYLH in the syringe. Control experiments replaced the protein in the cell with buffer. The titration protocol included an initial 0.4 μL injection (excluded from analysis), followed by 19 injections of 2 μL at 2.5 min intervals. The cell was continuously stirred at 750 rpm. Data analysis was conducted using MicroCal PEAQ-ITC Analysis Software, with heats of dilution determined from the plateau region of the thermograms and subtracted from each integrated peak. All titrations are baseline corrected. The final integrated enthalpic changes were obtained by subtracting the controls from the protein-peptide titrations and fitted to a “one set of sites” binding model.

RufO [2] = biological target: T1, RufO; experiment: X-band cw EPR of RufO with peptide; format: binding; settings: 100 μM RufO, 2 mM peptide, 10 K; double-integrated intensities
Protocol: 3 Spectroscopic characterization of the RufO heme center with and without peptide substrates. (A) X-band continuous wave EPR spectra of RufO (black), RufO with 2 mM MRYLH (red), and RufO with 2 mM Nle-RYLH (blue), measured at 10 K and 1 mW microwave power. The minor species marked by asterisks likely arise from conformational heterogeneity of the heme center or a freezing artifact. (B) rR spectra of RufO (top), RufO with 2 mM MRYLH (middle), and RufO with 2 mM Nle-RYLH (bottom). The spectra were collected using a 405 nm excitation laser at 5 mW. (C) rR spectra of CO adducts of ferrous RufO (top) and ferrous RufO with 2 mM Nle-RYLH (bottom). Spectra were collected using a 442 nm excitation line at 1 mW. (D) Backbonding correlations between v(Fe–C) and v(C–O) stretching frequencies for various CYPs in the absence (squares) and presence (circles) of ligands. […]
EPR samples were prepared by mixing 100 μM RufO in the same buffer with 5% glycerol and either 2 mM MRYLH or Nle-RYLH, followed by flash-freezing in 4 mm quartz EPR tubes. […] Each sample was measured at 9.35 GHz microwave frequency at 10 K using 1 mW microwave power. All spectra were recorded with four averaged scans using an ER4119HS resonator at a modulation frequency of 100 kHz and a modulation amplitude of 0.4 mT. The conversion rate of the low-spin species was determined by comparing the double-integrated intensities of the signals. […]

RufO [3] = biological target: T1, RufO; experiment: RufO nitration activity assay (HPLC); format: biochemical; settings: 20 μM RufO, 1 mM peptide, SpFdX/SpFdR, pH 8.0, 25 °C, 30 min; highest rate set as 100%; triplicate
Protocol: Each assay was performed in triplicate and contained 20 μM CYP enzyme, 80 μM ferredoxin, 40 μM reductase, 1 mM substrate, 1 mM NADH/NADPH, 1 mM DEA NONOate (≥98%, Cayman Chemical), and 132 μL O2-saturated buffer (50 mM Tris, 100 mM NaCl at pH 8.0, bubbled for 30 min) for a final reaction volume of 200 μL. Reactions with CPR in place of the ferredoxin/reductase system contained 40 μM CPR. Reactions were incubated at 25 °C with shaking at 300 rpm for 30 min, then filtered using a 10 kDa cutoff centrifugal filter (Millipore) and analyzed by HPLC. Filtrate was analyzed on an InertSustain C18 column (5 μm particle size, 4.6 mm × 100 mm, GL Sciences Inc.) on a Thermo Fisher Scientific Ultimate-3000SD HPLC rapid separation system equipped with a photodiode array detector. The flow rate was set at 1 mL/min. For RufO assays, solvent A was water and solvent B was 90% acetonitrile (ACN) in water with 0.1% trifluoroacetic acid (TFA). A gradient of 0–70% solvent B was applied over 15 min. For collection of peptide product peaks for mass spectrometry analysis, TFA in solvent B was replaced with formic acid (FA). The method for TxtE assays used water with 0.1% FA as solvent A and ACN with 0.1% FA as solvent B. A gradient of 0–20% solvent B was applied over 10 min, followed by a 5 min hold at 20% solvent B. All presented traces were monitored at an absorbance wavelength of 280 nm. […]

TxtE [4] = biological target: T2, TxtE (Streptomyces scabiei, UniProt C9ZDC6); experiment: ITC of Trp titration to TxtE; format: binding; settings: 2 mM Trp into 50 μM TxtE
T2 sequence (C9ZDC6 1-406): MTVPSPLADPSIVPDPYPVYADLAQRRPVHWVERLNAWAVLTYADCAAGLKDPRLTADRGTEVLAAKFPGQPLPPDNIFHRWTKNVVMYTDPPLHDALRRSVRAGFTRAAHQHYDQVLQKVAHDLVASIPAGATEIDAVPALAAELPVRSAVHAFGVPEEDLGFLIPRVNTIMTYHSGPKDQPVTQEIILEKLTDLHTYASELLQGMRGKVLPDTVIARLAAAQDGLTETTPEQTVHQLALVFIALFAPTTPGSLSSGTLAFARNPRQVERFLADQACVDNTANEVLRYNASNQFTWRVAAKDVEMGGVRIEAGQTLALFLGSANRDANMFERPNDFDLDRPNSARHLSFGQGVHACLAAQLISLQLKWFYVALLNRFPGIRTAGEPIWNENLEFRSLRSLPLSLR
Protocol: (§1) Figure S1. Spectroscopic and ITC analysis of substrate binding in TxtE
(§2) (A) UV-vis spectra of 2 μM TxtE in the absence (black trace) and presence (red trace) of 0.5 mM
(§3) Trp; (B) ITC experiment of Trp titration to TxtE.
(§4) power observed with successive injections of 2 mM Trp to 50 μM TxtE after baseline correction.
(§5) consistent with a single binding site (red line). (C) Resonance Raman spectra of 100 μM TxtE in
(§6) the absence (top) and presence (bottom) of 1 mM Trp.
(§7) (1 picture or pasted object on this page, not shown here)

TxtE [5] = biological target: T2, TxtE; experiment: UV-vis of TxtE with Trp; format: binding; settings: 2 μM TxtE, 0.5 mM Trp
Protocol: as §1, §2
Trp; (B) ITC experiment of Trp titration to TxtE. […]
as §7

TxtE [6] = biological target: T2, TxtE; experiment: Resonance Raman of TxtE with Trp; format: binding; settings: 100 μM TxtE, 1 mM Trp
Protocol: All rR measurements were carried out in 180° backscattering geometry, with scattered light focused by a cylindrical lens (Nikon). The beam passed through a 405 nm notch filter (Thorlabs) for ferric samples or a 442 nm notch filter (Iridian) for ferrous-CO samples, before entering an iHR550 spectrometer (Horiba Scientific). The spectrometer was configured with a 120-μm entrance slit and a 1200 grooves/mm grating (estimated spectral resolution of 10 cm^–1) for ferric samples, or a 350-μm slit and 2400 grooves/mm grating (estimated spectral resolution of 10 cm^–1) for ferrous-CO samples, with detection by a liquid nitrogen-cooled Symphony CCD detector (Horiba Scientific). The accuracy of absolute frequencies is about ±1 cm^–1 based on duplicated measurements. Measurements were conducted at room temperature in 5 mm NMR tubes constantly spinning to prevent local heating and protein degradation. The acquisition times for ferric and CO-bound samples were set to 40 min and 2 h, respectively. UV–vis spectra were recorded before and after the measurements to ensure no photodegradation occurred. rR spectra were calibrated with fenchone (for all samples) and acetone-d 6 (for ferrous-CO samples in high-frequency regions) and processed using GRAMS/AI software (ThermoFisher).
as §1, §2, §3, §4, §5, §6, §7

ferrous RufO = experiment: Stopped-flow transient kinetics of O2 and •NO binding to ferrous RufO; settings: 4 °C; for association rate constant k1: 3.3 μM ferrous RufO, pH 8.0, linear fit
Protocol: 5 Transient kinetics of ferrous RufO binding to O2 and ^•NO. Spectral changes following the rapid mixing of 3.3 μM ferrous RufO bound to MRYLH with (A) 18 μM O2 and (C) 70 μM ^•NO over 0.2 s. The black-to-red spectral transitions represent the formation of (A) a ferric-superoxo intermediate and (C) a ferrous-nitrosyl complex. Insets show the time-dependent absorbance changes at 438 nm (the most pronounced shift), fitted using single exponential equations to determine rate constants (red trace). Dependence of rate constant as a function of gas concentration on (B) O2 and (D) ^•NO binding to ferrous RufO alone (blue) and peptide-bound RufO (red). Second-order rate constants were determined through linear fitting. TEXT PRINTED IN THE PICTURE: (A) + O2: kobs = 74.3 s^-1 | (B) RufO alone: k1 = 3.55 μM^-1 s^-1 | (B) peptide-bound: k1 = 3.83 μM^-1 s^-1 | (C) + •NO: kobs = 107.4 s^-1 | (D) RufO alone: k1 = 4.12 μM^-1 s^-1 | (D) peptide-bound: k1 = 2.35 μM^-1 s^-1
Stopped-flow spectroscopic data were collected using an Applied Photophysics SX20 stopped-flow system equipped with a photodiode array detector. The system was maintained in an anaerobic chamber (O2 < 1 ppm) and all sample preparation was done anaerobically. Measurements were performed at 4 °C. All samples were prepared in a buffer containing 50 mM Tris-HCl and 100 mM NaCl, pH 8.0. RufO was prereduced with a minimal amount of sodium dithionite. The final mixed concentrations of RufO and MRYLH (where applicable) were 3.3 and 24 μM, respectively. Solutions of varying O2 concentrations were prepared by diluting air-saturated buffer with anaerobic buffer. The concentrations of O2 in the air-saturated buffer were measured with an Oxygraph+ oxygen electrode (Hansatech). To generate ^•NO-containing solutions, 0.5 mM DEA NONOate (≥98%, Cayman Chemical) was incubated in anaerobic buffer for 4 h to ensure complete ^•NO release. The ^•NO concentrations were quantified based on a hemoglobin assay, and further dilutions were made with anaerobic buffer immediately prior to mixing. Experimental data were analyzed by the ProK software package from Applied Photophysics. The second-order rate constants were obtained from linear fitting, with the resulting equations: y = 3.55x + 54.4 for the mixing of RufO with O2, y = 3.83x + 6.5 for the ES complex with O2, y = 4.12x −158.0 for RufO with ^•NO, and y = 2.35x – 58.9 for the ES complex with ^•NO.
Figure S9. Transient kinetics of ferrous RufO alone binding to O2 and •NO Spectral changes following the rapid mixing of 3.3 μM ferrous RufO with (A) 18 μM O 2 and […] superoxo intermediate and (B) a ferrous-nitrosyl complex. Insets show the time-dependent absorbance changes at 438 nm (the most pronounced shift), fitted using first-order exponential equations to determine rate constants (red trace).
as §7

[7] = biological target: T3, MRYLH pentapeptide (RufO substrate) (Streptomyces atratus); experiment: ITC
T3 chain: MRYLH

CCCC[C@H](N)C(=O)N[C@@H](CCCNC(=N)N)C(=O)N[C@@H](Cc1ccc(O)cc1)C(=O)N[C@@H](CC(C)C)C(=O)N[C@@H](Cc1c[nH]cn1)C(=O)O [Nle-RYLH] (H-[Nle]RYLH-OH)
Kd (RufO [1]): 1600 nM
conversion of original low-spin species to new low-spin species (RufO [2]): 84%
conversion rate (normalized) (RufO [3]): 100%

N[C@@H](Cc1c[nH]c2ccccc12)C(=O)O [Trp, L-tryptophan]
ΔS, in words (TxtE [4]): negative ΔS
Kd (TxtE [4]; single binding site): 16000 nM
ΔH (TxtE [4]; single binding site, exothermic): -14.6 kcal/mol
Soret band position on substrate binding (TxtE [5]): 390 nm
low-spin ν10 (1640 cm^–1), in words (TxtE [6]): disappearance
ν4 on Trp binding (TxtE [6]; initially 1374 cm^–1): 1373 cm^–1
ν3 on Trp binding (TxtE [6]; initially 1504 cm^–1, six- to five-coordinate high-spin conversion): 1488 cm^–1
ν2 on Trp binding (TxtE [6]; initially 1588 cm^–1): 1570 cm^–1

MRYLH [MRYLH]
Kd (RufO [1]): 780 ± 300 nM
conversion of original low-spin species to new low-spin species (RufO [2]): 84%

nitric oxide [•NO]
kobs (ferrous RufO; MRYLH-bound ferrous RufO 3.3 μM, 70 μM •NO, 438 nm, single exponential): 107.4 s⁻¹
association rate constant k1 (ferrous RufO; MRYLH-bound, 24 μM MRYLH): 2.35 μM^–1 s^–1
association rate constant k1 (ferrous RufO; RufO alone): 4.12 μM^–1 s^–1
•NO concentration below which nitrosyl complex not detectable (ferrous RufO; RufO alone): < 50 µM
•NO concentration below which nitrosyl complex not detectable (ferrous RufO; peptide-bound RufO): < 70 µM

B1: RufO (protein)
chain: T1 sequence (A0A224AU14 1-394)
Kd [7]: 780 nM
